The results in this text go back to patent US9932350B2, “Inhibitors of IRAK4 activity” (MERCK SHARP & DOHME CORP., priority 2014, dated 2018).

This assay concerns the target GST tagged IRAK4 (Homo sapiens (Human), UniProt Q9NWZ3). Put plainly: IRAK4 Kinase Assay (IMAP fluorescence polarization). Conditions: 0.5 nM GST tagged IRAK4, 100 μM ATP, 30 minutes at 25° C. The assay is classed as biochemical. As to the method: The kinase activity of IRAK4 is determined by its ability to catalyze the phosphorylation of a fluorescent polypeptide substrate. The extent of phosphorylation is measured using the IMAP technology (Molecular Devices) where the phosphorylated fluorescent substrate binds to the large M(III)-based nanoparticles which reduces the rotational speed of the substrate and thus increases its fluorescent polarization (FP).
20 μL reaction mixture contains 10 mM TriHCl, pH 7.2, 0.5 nM GST tagged IRAK4 (SignalChem), 100 nM fluorescent peptide substrate (RP7030, Molecular Devices), 100 μM ATP, 1 mM DDT, 1 mM MgCl2, and 0.01% Tween 20. The reaction is initiated by the addition of ATP. After incubation for 30 minutes at 25° C., 60 μL of Progressive IMAP Reagent (Molecular Devices) is added to stop the reaction. Change in RP7030's FP is determined by a FP reader (Analyst HT, LJL BioSystems).

Chain of GST tagged IRAK4 (Q9NWZ3 whole entry): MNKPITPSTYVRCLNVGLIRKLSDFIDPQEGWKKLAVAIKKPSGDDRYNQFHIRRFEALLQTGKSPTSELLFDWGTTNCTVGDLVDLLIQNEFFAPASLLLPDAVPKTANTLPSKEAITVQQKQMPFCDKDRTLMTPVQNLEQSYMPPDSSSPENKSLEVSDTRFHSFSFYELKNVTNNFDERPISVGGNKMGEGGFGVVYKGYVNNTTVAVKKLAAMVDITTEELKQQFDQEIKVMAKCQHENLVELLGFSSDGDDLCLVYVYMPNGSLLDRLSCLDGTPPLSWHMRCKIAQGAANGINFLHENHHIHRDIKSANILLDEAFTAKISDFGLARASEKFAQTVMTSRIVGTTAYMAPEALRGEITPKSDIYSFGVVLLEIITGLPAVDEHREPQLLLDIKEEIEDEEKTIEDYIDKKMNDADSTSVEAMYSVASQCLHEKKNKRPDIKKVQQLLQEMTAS

On to `N#Cc1ccc2ncnc(N[C@H]3CC[C@H](N4CCOC(CO)C4)CC3)c2c1` (single isomer, unassigned) [Example 3-11, 4-({trans-4-[(2R or 2S)-2-(hydroxymethyl)morpholin-4-yl]cyclohexyl}amino) quinazoline-6-carbonitrile], for which the IC50 was determined as 7 nM.

Regarding `CC1CN([C@H]2CC[C@H](Nc3ncnc4ccc(C#N)cc34)CC2)CCO1` (single isomer, unassigned) [Example 3-17, 4-({trans-4-[(2S or 2R)-2-methylmorpholin-4-yl]cyclohexyl}amino) quinazoline-6-carbonitrile], half-maximal inhibition (IC50) required 4 nM.

Take `CS(=O)(=O)C1CCN([C@H]2CC[C@H](Nc3ncnc4ccc(C#N)cc34)CC2)C1` (stereo partly drawn) [Example 3-13, 4-({trans-4-[3-(methylsulfonyl)pyrrolidin-1-yl]cyclohexyl}amino) quinazoline-6-carbonitrile]: the IC50 amounted to 14 nM.

As for `N#Cc1ccc2ncnc(N[C@H]3CC[C@H](N4CCOC(CO)C4)CC3)c2c1` (single isomer, unassigned) [Example 3-12, 4-({trans-4-[(2R or 2S)-2-(hydroxymethyl)morpholin-4-yl]cyclohexyl}amino) quinazoline-6-carbonitrile], the IC50 is 6 nM.

For the compound `N#Cc1ccc2ncnc(N[C@H]3CC[C@H](N4CCCC5COCCC54)CC3)c2c1` (stereo partly drawn) [Example 3-25, 4-{[trans-4-(hexahydro-2H-pyrano[4,3-b]pyridin-1(5H)-yl)cyclohexyl]amino} quinazoline-6-carbonitrile], the IC50 was 53 nM.

`CC1CC(N2CCC(F)CC2)CCC1Nc1ncnc2ccc(C#N)cc12` (single isomer, unassigned) [Example 8-2, 4-{[(1S,2S,4S or 1R,2R,4R)-4-(4-fluoropiperidin-1-yl)-2-methylcyclohexyl]amino} quinazoline-6-carbonitrile] came in with an IC50 of 10 nM.

The compound `Brc1ccc2ncnc(O[C@H]3CC[C@H](N4CCOCC4)CC3)c2c1` [Example 2-1, 6-Bromo-4-{[trans-4-(morpholin-4-yl)cyclohexyl]oxy}quinazoline] came in with an IC50 of 40 nM.

On to `CC1CN([C@H]2CC[C@H](Nc3ncnc4ccc(C#N)cc34)CC2)CCO1` (single isomer, unassigned) [Example 3-16, 4-({trans-4-[(2S or 2R)-2-methylmorpholin-4-yl]cyclohexyl}amino) quinazoline-6-carbonitrile], for which inhibition was half-maximal at 7 nM (IC50).

The compound `N#Cc1ccc2ncnc(N[C@H]3CC[C@H](N4CCOC(CF)C4)CC3)c2c1` (stereo partly drawn) [Example 3-27, 4-({trans-4-[2-(fluoromethyl)morpholin-4-yl]cyclohexyl}amino) quinazoline-6-carbonitrile] had an IC50 of 8 nM.

With `CN(C)[C@H]1CC[C@H](Nc2ncnc3cc(F)c(F)cc23)CC1` [Example 2-4, trans-N′-(6,7-difluoroquinazolin-4-yl)-N,N-dimethylcyclohexane-1,4-diamine], the IC50 is 303 nM.

`CN(C)[C@H]1CC[C@H](Nc2ncnc3ccc(OCCCC#N)cc23)CC1` [Example 2-16, 4-[(4-{[trans-4-(dimethylamino)cyclohexyl]amino}quinazolin-6-yl)oxy]butanenitrile] yielded an IC50 of 734 nM.

As for `N#Cc1ccc2ncnc(N[C@H]3CC[C@H](N4CCCC(CN5CCOCC5)C4)CC3)c2c1` (single isomer, unassigned) [Example 3-41, 4-({trans-4-[(3R or 3S)-3-(morpholin-4-ylmethyl)piperidin-1-yl]cyclohexyl}amino) quinazoline-6-carbonitrile], the IC50 worked out at 70 nM.

Consider `C[C@@H]1COCCN1[C@H]1CC[C@H](Nc2ncnc3ccc(C#N)cc23)CC1` [Example 3-31, 4-({trans-4-[(3R)-3-methylmorpholin-4-yl]cyclohexyl}amino) quinazoline-6-carbonitrile], for which inhibition was half-maximal at 10 nM (IC50).

For `C[C@]1(Nc2ncnc3ccc(C#N)cc23)CC[C@H](N2CCC(F)CC2)CC1` [Example 7-2, 4-{[trans-4-(4-fluoropiperidin-1-yl)-1-methylcyclohexyl]amino} quinazoline-6-carbonitrile], half-maximal inhibition (IC50) required 74 nM.

The compound `N#Cc1ccc2ncnc(N[C@H]3CC[C@H](N4C[C@H]5CC[C@@H](C4)O5)CC3)c2c1` [Example 3-50, 4-({trans-4-[(1R,5S)-8-oxa-3-azabicylco[3.2.1]oct-3-yl]cyclohexyl}amino) quinazoline-6-carbonitrile] gave an IC50 of 579 nM.

On to `N#Cc1ccc2ncnc(N[C@H]3CC[C@H](N4CCC(O)C4)CC3)c2c1` (stereo partly drawn) [Example 3-55, 4-{[trans-4-(3-hydroxypyrrolidin-1-yl)cyclohexyl]amino} quinazoline-6-carbonitrile], for which the midpoint of inhibition, the IC50, lay at 15 nM.

`CC(C)(C)OC(=O)N1CCN([C@H]2CC[C@H](Nc3ncnc4ccc(C#N)cc34)CC2)CC1` [Example 3-45, tert-butyl 4-{trans-4-[(6-cyanoquinazolin-4-yl)amino]cyclohexyl} piperazine-1-carboxylate] registered an IC50 of 6 nM.

Compound `CN(C)[C@H]1CC[C@H](Nc2ncnc3ccc(OCC(N)=O)cc23)CC1` [Example 2-17, 2-[(4-{[trans-4-(dimethylamino)cyclohexyl]amino}quinazolin-6-yl)oxy]acetamide] displayed an IC50 of 52 nM.

Compound `N#Cc1ccc2ncnc(N[C@H]3CC[C@H](N4CCN(C(=O)C5CC(F)C5)CC4)CC3)c2c1` (stereo partly drawn) [Example 6-13, 4-[(trans-4-{4-[(3-fluorocyclobutyl)carbonyl]piperazin-1-yl}cyclohexyl)amino] quinazoline-6-carbonitrile] yielded an IC50 of 10 nM.

As for `N#Cc1ccc2ncnc(N[C@H]3CC[C@H](N4CCN(C(=O)CCO)CC4)CC3)c2c1` [Example 6-22, 4-({trans-4-[4-(3-hydroxypropanoyl)piperazin-1-yl]cyclohexyl}amino) quinazoline-6-carbonitrile], the IC50 was determined as 9 nM.

In turn, `CC(C)(CF)C(=O)N1CCN([C@H]2CC[C@H](Nc3ncnc4ccc(C#N)cc34)CC2)CC1` [Example 6-4, 4-({trans-4-[4-(3-fluoro-2,2-dimethylpropanoyl)piperazin-1-yl]cyclohexyl}amino) quinazoline-6-carbonitrile] came in with an IC50 of 9 nM.

Turning to `N#Cc1ccc2ncnc(N[C@H]3CC[C@H](N4C5CCC4COC5)CC3)c2c1` [Example 3-47, 4-{[trans-4-(3-oxa-8-azabicyclo[3.2.1]oct-8-yl)cyclohexyl]amino} quinazoline-6-carbonitrile], the midpoint of inhibition, the IC50, lay at 872 nM.

On to `CC(C)(F)C(=O)N1CCN([C@H]2CC[C@H](Nc3ncnc4ccc(C#N)cc34)CC2)CC1` [Example 6-5, 4-({trans-4-[4-(2-fluoro-2-methylpropanoyl)piperazin-1-yl]cyclohexyl}amino) quinazoline-6-carbonitrile], for which the IC50 was 12 nM.

Compound `N#Cc1ccc2ncnc(NC3CCC(N4CCCC(C(F)(F)F)C4)CC3)c2c1` (single isomer, unassigned) [Example 3-4, 4-({cis or trans-4-[(3R or S)-3-(trifluoromethyl)piperidin-1-yl]cyclohexyl}amino) quinazoline-6-carbonitrile] came in with an IC50 of 503 nM.

Regarding `CC1(C)CN([C@H]2CC[C@H](Nc3ncnc4ccc(C#N)cc34)CC2)CCO1` [Example 3-51, 4-{[trans-4-(2,2-dimethylmorpholin-4-yl)cyclohexyl]amino} quinazoline-6-carbonitrile], the IC50 was 89 nM.
